Experimental data from patent US9139587B2, “N1-pyrazolospiroketone acetyl-CoA carboxylase inhibitors” (Pfizer Inc., priority 2009, dated 2015).

How the values were obtained:
[1] = target: T1, recombinant human ACC2 (rhACC2) (Homo sapiens, UniProt O00763, V2141I); assay: recombinant hACC2 Transcreener assay (direct inhibition of ACC2 activity); assay type: biochemical; details: Transcreener ADP detection FP assay, 50 μM ATP, 30 μM acetyl-CoA, 50 min at 25° C.
T1 construct: a full length Cytomax clone of ACC2 was purchased from Cambridge Bioscience Limited; made in house; host or cells: CHO cells (tetracycline-induced, pcDNA5 FRT TO-TOPO)
Experimental: For example direct inhibition of ACC activity, for the compound of Formula (1) was determined using preparations of recombinant human ACC1 (rhACC1) and recombinant human ACC2 (rhACC2). Representative sequences of the recombinant human ACC1 and ACC2 that can be used in the assay are provided in FIG. 1 (SEQ ID NO. 1) and FIG. 2 (SEQ. ID NO. 2), respectively.
[3] Preparation of rhACC2. Human ACC2 inhibition was measured using purified recombinant human ACC2 (hrACC2). Briefly, a full length Cytomax clone of ACC2 was purchased from Cambridge Bioscience Limited and was sequenced and subcloned into PcDNA5 FRT TO-TOPO (Invitrogen, Carlsbad, Calif.). The ACC2 was expressed in CHO cells by tetracycline induction and harvested in 5 liters of DMEM/F12 with glutamine, biotin, hygromycin and blasticidin with 1 μg/mL tetracycline (Invitrogen, Carlsbad, Calif.). The conditioned medium containing ACC2 was then applied to a Softlink Soft Release Avidin column (Promega, Madison, Wis.) and eluted with 5 mM biotin. 4 mgs of ACC2 were eluted at a concentration of 0.05 mg/mL (determined by A280) with an estimated purity of 95% ([…]). The purified ACC2 was dialyzed in 50 mM Tris, 200 mM NaCl, 4 mM DTT, 2 mM EDTA, and 5% glycerol. The pooled protein was frozen and stored at −80° C., with no loss of activity upon thawing. For measurement of ACC2 activity and assessment of ACC2 inhibition, test compounds were dissolved in DMSO and added to the rhACC2 enzyme as a 5× stock with a final DMSO concentration of 1%.
[4] Measurement of human ACC2 inhibition. hACC2 was assayed in a Costar #3676 (Costar, Cambridge, Mass.) 384-well plate using the Transcreener ADP detection FP assay kit (Bellbrook Labs, Madison, Wisconsin) using the manufacturer's recommended conditions for a 50 uM ATP reaction. The final conditions for the assay were 50 mM HEPES, pH 7.2, 5 mM MgCl2, 5 mM tripotassium citrate, 2 mM DTT, 0.1 mg/mL BSA, 30 μM acetyl-CoA, 50 μM ATP, and 8 mM KHCO3 Typically, a 10 μl reaction was run for 50 min at 25° C., and 10 μl of Transcreener stop and detect buffer was added and the combination incubated at room temp for an additional 1 hour. The data was acquired on an Envision Fluorescence reader (Perkinelmer) using a 620 excitation Cy5 FP general dual mirror, 620 excitation Cy5 FP filter, 688 emission (S) and a 688 (P) emission filter.

[2] = target: T2, recombinant human ACC1 (rhACC1) (Homo sapiens, UniProt Q13085, DEL44-44); assay: recombinant hACC1 Transcreener assay (direct inhibition of ACC1 activity); assay type: biochemical; details: Transcreener ADP detection FP assay, 50 μM ATP, 30 μM acetyl-CoA, 120 min at 25° C.
T2 construct: recombinant baculovirus containing full length human ACC1 cDNA; made in house; host or cells: SF9 insect cells (baculovirus)
Experimental: For example direct inhibition of ACC activity, for the compound of Formula (1) was determined using preparations of recombinant human ACC1 (rhACC1) and recombinant human ACC2 (rhACC2). Representative sequences of the recombinant human ACC1 and ACC2 that can be used in the assay are provided in FIG. 1 (SEQ ID NO. 1) and FIG. 2 (SEQ. ID NO. 2), respectively. Preparation of rhACC1. Two liters of SF9 cells, infected with recombinant baculovirus containing full length human ACC1 cDNA, were suspended in ice-cold lysis buffer (25 mM Tris, pH 7.5; 150 mM NaCl; 10% glycerol; 5 mM imidazole (EMD Bioscience; Gibbstown, N.J.); 2 mM TCEP (BioVectra; Charlottetown, Canada); Benzonase nuclease (10000 U/100 g cell paste; Novagen; Madison, Wis.); EDTA-free protease inhibitor cocktail (1 tab/50 mL; Roche Diagnostics; Mannheim, Germany). Cells were lysed by 3 cycles of freeze-thaw and centrifuged at 40,000×g for 40 minutes (4° C.). Supernatant was directly loaded onto a HisTrap FF crude column (GE Healthcare; Piscataway, N.J.) and eluted with an imidazole gradient up to 0.5 M over 20 column volumes (CV). ACC1-containing fractions were pooled and diluted 1:5 with 25 mM Tris, pH 7.5, 2 mM TCEP, 10% glycerol and direct loaded onto a CaptoQ (GE Healthcare) column and eluted with an NaCl gradient up to 1 M over 20 CV's. Phosphate groups were removed from purified ACC1 by incubation with lambda phosphatase (100 U/10 μM target protein; New England Biolabs; Beverly, Mass.) for 14 hours at 4° C.; okadaic acid was added (1 μM final concentration; Roche Diagnostics) to inhibit the phosphatase. Purified ACC1 was exchanged into 25 mM Tris, pH 7.5, 2 mM TCEP, 10% glycerol, 0.5 M NaCl by 6 hour dialysis at 4° C. Aliquots were prepared and frozen at −80° C. […] The final conditions for the assay were 50 mM HEPES, pH 7.2, 10 mM MgCl2, 7.5 mM tripotassium citrate, 2 mM DTT, 0.1 mg/mL BSA, 30 μM acetyl-CoA, 50 μM ATP, and 10 mM KHCO3 Typically, a 10 μl reaction was run for 120 min at 25° C., and 10 μl of Transcreener stop and detect buffer was added and the combination incubated at room temp for an additional 1 hour. The data was acquired on a Envision Fluorescence reader (Perkinelmer) using a 620 excitation Cy5 FP general dual mirror, 620 excitation Cy5 FP filter, 688 emission (S) and a 688 (P) emission filter.

T1 sequence (O00763 whole entry V2141I): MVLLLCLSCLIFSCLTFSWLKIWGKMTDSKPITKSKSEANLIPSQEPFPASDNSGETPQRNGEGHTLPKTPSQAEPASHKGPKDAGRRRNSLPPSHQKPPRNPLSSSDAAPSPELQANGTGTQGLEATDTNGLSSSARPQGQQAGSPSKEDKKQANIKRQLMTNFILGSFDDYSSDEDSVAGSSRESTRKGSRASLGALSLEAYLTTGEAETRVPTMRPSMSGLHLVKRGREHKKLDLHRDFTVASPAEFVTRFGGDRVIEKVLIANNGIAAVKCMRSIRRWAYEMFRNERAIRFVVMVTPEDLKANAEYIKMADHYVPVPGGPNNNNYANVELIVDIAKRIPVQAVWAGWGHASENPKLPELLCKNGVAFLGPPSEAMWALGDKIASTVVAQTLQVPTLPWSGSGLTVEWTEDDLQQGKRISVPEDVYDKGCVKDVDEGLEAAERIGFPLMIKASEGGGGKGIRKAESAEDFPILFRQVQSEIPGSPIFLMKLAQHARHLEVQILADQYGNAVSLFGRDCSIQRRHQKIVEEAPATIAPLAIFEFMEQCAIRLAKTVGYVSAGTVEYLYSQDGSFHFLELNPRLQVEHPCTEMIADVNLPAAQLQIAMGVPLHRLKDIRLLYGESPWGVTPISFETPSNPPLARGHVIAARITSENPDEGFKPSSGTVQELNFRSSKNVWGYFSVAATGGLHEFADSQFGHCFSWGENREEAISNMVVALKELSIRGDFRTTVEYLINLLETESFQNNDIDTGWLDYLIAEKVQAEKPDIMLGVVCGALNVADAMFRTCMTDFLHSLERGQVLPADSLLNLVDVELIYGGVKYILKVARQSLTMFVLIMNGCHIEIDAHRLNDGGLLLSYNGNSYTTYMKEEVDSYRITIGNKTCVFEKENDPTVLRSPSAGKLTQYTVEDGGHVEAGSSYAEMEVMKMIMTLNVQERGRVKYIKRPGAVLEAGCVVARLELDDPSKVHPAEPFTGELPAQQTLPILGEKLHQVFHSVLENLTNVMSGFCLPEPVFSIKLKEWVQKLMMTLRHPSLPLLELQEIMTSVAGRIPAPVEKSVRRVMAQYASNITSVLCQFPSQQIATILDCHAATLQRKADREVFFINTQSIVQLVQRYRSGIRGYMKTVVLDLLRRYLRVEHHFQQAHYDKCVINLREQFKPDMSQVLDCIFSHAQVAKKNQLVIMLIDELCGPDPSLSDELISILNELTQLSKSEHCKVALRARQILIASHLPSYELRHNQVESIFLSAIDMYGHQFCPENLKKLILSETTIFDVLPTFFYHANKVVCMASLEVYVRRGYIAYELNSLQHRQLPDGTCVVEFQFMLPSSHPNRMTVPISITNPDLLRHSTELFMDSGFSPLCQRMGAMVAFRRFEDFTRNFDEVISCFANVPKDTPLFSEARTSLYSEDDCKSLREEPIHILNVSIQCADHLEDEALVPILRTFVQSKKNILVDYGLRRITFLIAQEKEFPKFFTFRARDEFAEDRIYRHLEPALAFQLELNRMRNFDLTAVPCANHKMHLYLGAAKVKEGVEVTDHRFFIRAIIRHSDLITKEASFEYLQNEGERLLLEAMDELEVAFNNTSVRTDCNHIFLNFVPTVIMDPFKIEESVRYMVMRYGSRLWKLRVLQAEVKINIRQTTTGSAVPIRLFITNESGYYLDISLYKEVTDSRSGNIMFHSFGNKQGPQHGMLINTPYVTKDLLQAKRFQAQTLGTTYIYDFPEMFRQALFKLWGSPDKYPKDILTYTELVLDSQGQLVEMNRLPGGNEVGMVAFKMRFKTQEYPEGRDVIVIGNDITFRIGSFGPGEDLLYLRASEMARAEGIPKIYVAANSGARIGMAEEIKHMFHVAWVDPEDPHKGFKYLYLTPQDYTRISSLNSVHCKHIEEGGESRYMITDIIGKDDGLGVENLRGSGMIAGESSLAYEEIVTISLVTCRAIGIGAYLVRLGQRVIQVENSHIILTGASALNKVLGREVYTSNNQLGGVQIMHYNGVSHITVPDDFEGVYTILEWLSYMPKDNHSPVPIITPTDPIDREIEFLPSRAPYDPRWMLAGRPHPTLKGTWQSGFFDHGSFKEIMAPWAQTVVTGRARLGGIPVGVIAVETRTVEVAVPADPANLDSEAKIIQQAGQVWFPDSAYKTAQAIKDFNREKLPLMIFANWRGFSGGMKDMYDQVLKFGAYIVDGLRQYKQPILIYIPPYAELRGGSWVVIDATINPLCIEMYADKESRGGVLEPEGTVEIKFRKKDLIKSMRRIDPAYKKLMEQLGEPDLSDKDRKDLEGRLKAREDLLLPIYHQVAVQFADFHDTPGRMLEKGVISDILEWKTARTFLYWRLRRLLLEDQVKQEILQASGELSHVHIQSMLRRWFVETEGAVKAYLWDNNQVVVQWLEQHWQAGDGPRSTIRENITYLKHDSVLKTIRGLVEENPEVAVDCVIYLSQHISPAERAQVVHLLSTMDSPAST

IC50 [1] [nM]	IC50 [2] [nM]	SMILES
51	170	CC(C)(C)n1ncc2c1C(=O)CC1(CCN(C(=O)c3ccc4c(c3)CC(=O)N4)CC1)C2 [Example 2A-30]
28.8	43.5	CC(C)(C)n1ncc2c1C(=O)CC1(CCN(C(=O)c3ccc4cc[nH]c(=O)c4c3)CC1)C2 [Example 2A-31]
28.6	37	CC(C)(C)n1ncc2c1C(=O)CC1(CCN(C(=O)c3ccc4[nH]cnc4c3)CC1)C2 [Example 2A-32]
14.5	53.7	CC(C)n1ncc2c1C(=O)CC1(CCN(C(=O)c3ccc4[nH]c(=O)[nH]c4c3)CC1)C2 [Example 2A-33]
32.1	72.4	CC(C)(C)n1ncc2c1C(=O)CC1(CCN(C(=O)c3ccc4c(c3)NC(=O)CC4)CC1)C2 [Example 2A-34]
29.6	123	CC(C)n1ncc2c1C(=O)CC1(CCN(C(=O)c3cc(F)c4nc[nH]c4c3)CC1)C2 [Example 2A-36]
34.5	87.4	CC(C)n1ncc2c1C(=O)CC1(CCN(C(=O)c3cc(F)c4[nH]ncc4c3)CC1)C2 [Example 2A-37]
99.7	297	CC(C)n1ncc2c1C(=O)CC1(CCN(C(=O)c3cc4cnccc4nc3N)CC1)C2 [Example 2A-38]
122	527	CC(C)(C)n1ncc2c1C(=O)CC1(CCN(C(=O)c3nc4ccccc4nc3N)CC1)C2 [Example 2A-39]
116	262	CC(C)n1ncc2c1C(=O)CC1(CCN(C(=O)c3cnc4ccnn4c3N)CC1)C2 [Example 2A-40]
90	176	CC(C)(C)n1ncc2c1C(=O)CC1(CCN(C(=O)c3cnc4[nH]ncc4c3)CC1)C2 [Example 2A-41]
766	1300	Cc1nc2ccc(C(=O)N3CCC4(CC3)CC(=O)c3c(cnn3C3COC3)C4)cc2[nH]1 [Example 2A-42]
149	304	CC(C)(C)n1ncc2c1C(=O)CC1(CCN(C(=O)c3cnc4ccnn4c3N)CC1)C2 [Example 2A-43]
30.2	106	CC(C)(C)n1ncc2c1C(=O)CC1(CCN(C(=O)c3cc(F)c4[nH]ncc4c3)CC1)C2 [Example 2A-44]
32.9	73.7	Cn1c(=O)[nH]c2cc(C(=O)N3CCC4(CC3)CC(=O)c3c(cnn3C(C)(C)C)C4)ccc21 [Example 2A-45]
29.5	167	CC(C)n1ncc2c1C(=O)CC1(CCN(C(=O)c3ccc4c(c3)[nH]c(=O)n4C)CC1)C2 [Example 2A-46]
15.9	48.2	CC(C)n1ncc2c1C(=O)CC1(CCN(C(=O)c3cc(Cl)c4nc[nH]c4c3)CC1)C2 [Example 2A-47]
17.2	51.1	CC(C)(C)n1ncc2c1C(=O)CC1(CCN(C(=O)c3cc(Cl)c4nc[nH]c4c3)CC1)C2 [Example 2A-48]
71.6	92.1	Cn1c(=O)[nH]c2ccc(C(=O)N3CCC4(CC3)CC(=O)c3c(cnn3C(C)(C)C)C4)cc21 [Example 2A-49]

IC50 [1] [nM]	IC50 [2] [nM]	SMILES
29.9	72.7	CC(C)(C)n1ncc2c1C(=O)CC1(CCN(C(=O)c3cc(F)c4nc[nH]c4c3)CC1)C2 [Example 2A-51]
19.3	54.2	Cc1nc2c(Cl)cc(C(=O)N3CCC4(CC3)CC(=O)c3c(cnn3C(C)C)C4)cc2[nH]1 [Example 2A-52]
17.2	39.6	Cc1nc2c(Cl)cc(C(=O)N3CCC4(CC3)CC(=O)c3c(cnn3C(C)(C)C)C4)cc2[nH]1 [Example 2A-53]
51.5	214	Cc1nc2c(F)cc(C(=O)N3CCC4(CC3)CC(=O)c3c(cnn3C(C)C)C4)cc2[nH]1 [Example 2A-54]
105	266	Cc1nc2c(F)cc(C(=O)N3CCC4(CC3)CC(=O)c3c(cnn3C(C)(C)C)C4)cc2[nH]1 [Example 2A-55]
15.1	31.2	CC(C)(C)n1ncc2c1C(=O)CC1(CCN(C(=O)c3cc(Cl)c4[nH]c(=O)[nH]c4c3)CC1)C2 [Example 2A-56]
20.8	66.5	CC(C)n1ncc2c1C(=O)CC1(CCN(C(=O)c3cc(Cl)c4[nH]c(=O)[nH]c4c3)CC1)C2 [Example 2A-57]
74.1	280	CC(C)n1ncc2c1C(=O)CC1(CCN(C(=O)c3cnc4c(cnn4C)c3N)CC1)C2 [Example 2A-58]
69.2	115	Cn1ncc2c(N)c(C(=O)N3CCC4(CC3)CC(=O)c3c(cnn3C(C)(C)C)C4)cnc21 [Example 2A-59]
3990	8240	Cc1noc(-c2cc(C(=O)N3CCC4(CC3)CC(=O)c3c(cnn3C(C)C)C4)ccn2)n1 [Example 2A-60]
2190	2320	CC(C)n1ncc2c1C(=O)CC1(CCN(C(=O)c3cnc4ccccc4n3)CC1)C2 [Example 2A-61]
1280	4210	CC(=O)Nc1cccc(C(=O)N2CCC3(CC2)CC(=O)c2c(cnn2C(C)C)C3)n1 [Example 2A-62]
3200	9330	CC(C)n1ncc2c1C(=O)CC1(CCN(C(=O)c3ccc4cnccc4n3)CC1)C2 [Example 2A-63]
253	229	CC(C)n1ncc2c1C(=O)CC1(CCN(C(=O)c3cc4ccncc4[nH]3)CC1)C2 [Example 2A-64]
51.5	74.9	CC(C)n1ncc2c1C(=O)CC1(CCN(C(=O)c3cc(Cl)c4cn[nH]c4c3)CC1)C2 [Example 2A-65]
14000	30000	CC(C)n1ncc2c1C(=O)CC1(CCN(C(=O)c3cnc(N4CCOCC4)nc3)CC1)C2 [Example 2A-66]
653	799	CC(C)n1ncc2c1C(=O)CC1(CCN(C(=O)c3cc4[nH]ccn4n3)CC1)C2 [Example 2A-67]
51.2	68.4	CC(C)n1ncc2c1C(=O)CC1(CCN(C(=O)c3ccc4cn[nH]c4c3)CC1)C2 [Example 2A-68]
42.9	122	CC(C)n1ncc2c1C(=O)CC1(CCN(C(=O)c3ccc4ncccc4c3O)CC1)C2 [Example 2A-69]
